Measurements: article PMC7956476, “Quinoline Functionalized Schiff Base Silver (I) Complexes: Interactions with Biomolecules and In Vitro Cytotoxicity, Antioxidant and Antimicrobial Activities” (Molecules, 2021)

What was measured:
Assay in all cases: Cytotoxicity assay (CellTiter 96 AQueous One Solution, 72 h)
[1] = test system: human embryonic kidney 293 (HEK293); format: cell-based; conditions: normal cell line, n = 3, read-out: EC50 ± Std Dev (µM) HEK293
Experimental: (§1) In vitro cell viability with cultured cells is a method commonly used for cytotoxicity activities of potential anticancer compounds due to reduced cost speed, and potential for automation, and tests using human cells other than some in vivo animal tests. […] The cytotoxicity assay was conducted as per the standard method and as described by Abrahams et al. 2018 [111]. […] The plate was then incubated for 72 h at 37 °C and 5% CO2. To each well, 20 µL CellTiter 96 AQueous One Solution (Promega, Madison, WI, USA) was added and the plates were incubated for 4 h as previously described. Thereafter, absorbance was read at 490 nm on a multiplate reader (Molecular Devices, San Jose, CA, USA). […] The values recorded are averages of at least three separate experiments (n = 3).

[2] = test system: breast cancer cell line (MDA-MB231); format: cell-based, human
Experimental: as §1

[3] = test system: cervical cancer cell line (HELA); format: cell-based, human
Experimental: as §1

[4] = test system: neuronal cancer cell line (SHSY5Y); format: cell-based, human
Experimental: as §1

## N.N.[Cl][Pt][Cl] [Cisplatin, cisplatin, reference compound]
[1]
  EC50: 14.2 ± 3.8 µM
[2]; 72 h, n = 3, read-out: EC50 ± Std Dev (µM) MDA-MB231
  EC50: 22.7 ± 4.89 µM
[2]; EC50 in HEK293 over EC50 in MDA-MB231
  Selectivity Index (SI) MDA-MB231: 0.63
[3]; 72 h, n = 3, read-out: EC50 ± Std Dev (µM) HELA
  EC50: > 50 µM
[3]; EC50 in HEK293 over EC50 in HELA
  Selectivity Index (SI) HELA: 0.28
[4]; 72 h, n = 3, read-out: EC50 ± Std Dev (µM) SHSY5Y
  EC50: 19.7 ± 3.77 µM
[4]; EC50 in HEK293 over EC50 in SHSY5Y
  Selectivity Index (SI) SHSY5Y: 0.72
